{"source": "patent US12605382B2", "about": "“Pharmaceutical composition for preventing, alleviating, or treating cancer containing 2,6-dichloro-4-(4-(4-hydroxycyclohexylamino)-7H- pyrrolo[2,3-d]pyrimidin-5-yl)phenol as active ingredient” (JBKLAB CO., LTD., priority 2021, dated 2026)", "key": {"c-myc": {"test_system": "c-myc", "experiment": "Western blotting of tumor tissue from MDA-MB-231 tumor-bearing mice", "type": "in vivo, BALB/c-nude mice", "settings": "5, 10 and 20 mg/kg (T4, T5, T6), once by intravenous injection", "protocol": "(§1) An experiment was performed to confirm the inhibitory effect of the compound of Example 1, the active ingredient of the pharmaceutical composition of the present invention, on the expression of major proteins on cancer cell growth through Western blotting.\n(§2) Specifically, MDA-MB-231 cells, a TNBC cell line, were cultured in a 37° C., 5% CO2 incubator, and the medium used for cell culture was RPMI-1640 supplemented with 10% FBS. Tumors were induced by subcutaneously injecting 5×10^6/head/100 μl of MDA-MB-231 cells into the right neck of BALB/c-nude mice (5 mice each in control and administration groups), and the experiment was performed when the tumor size reached 200 mm^3. The compound of Example 1, the active ingredient of the pharmaceutical composition of the present invention, was administered once by intravenous injection at concentrations of 5, 10, and 20 mg/kg (T4, T5, and T6) and then euthanized using CO2, and the resulting tumor tissues from the control and administration groups were taken and subjected to Western blotting. Proteins were isolated from the tumor tissues and the results of Western blotting were confirmed using BRD4, c-myc, PD-L1, and Actin antibodies, respectively."}, "BRD4": {"test_system": "BRD4", "experiment": "Western blotting of tumor tissue from MDA-MB-231 tumor-bearing mice", "type": "in vivo, BALB/c-nude mice", "settings": "5, 10 and 20 mg/kg (T4, T5, T6), once by intravenous injection", "protocol": "as §1, §2"}, "PD-L1": {"test_system": "PD-L1", "experiment": "Western blotting of tumor tissue from MDA-MB-231 tumor-bearing mice", "type": "in vivo, BALB/c-nude mice", "settings": "5, 10 and 20 mg/kg (T4, T5, T6), once by intravenous injection", "protocol": "as §1, §2"}, "OVCAR-3": {"test_system": "OVCAR-3", "experiment": "Cell viability alone and in combination with cisplatin", "type": "cell-based, Human", "protocol": "(§3) Human ovarian cancer cell lines (SKOV-3 and OVCAR-3) were treated with control (no treatment), 0.1 μM of the compound of Example 1, 1 μM of cisplatin, and 0.1 μM of the compound of Example 1/1 μM of cisplatin, and the cell viability of SKOV-3 and OVCAR-3 was confirmed."}, "SKOV-3": {"test_system": "SKOV-3", "experiment": "Cell viability alone and in combination with cisplatin", "type": "cell-based, Human", "protocol": "as §3"}, "[1]": {"test_system": "breast cancer cells (MBA-MB-231)", "experiment": "Xenograft tumor growth inhibition, TNBC cells in nude mice", "type": "in vivo", "settings": "xenograft Balb/c nude mice, tumor size measured for 3 weeks", "protocol": "An experiment was performed to confirm the tumor inhibition of the compound of Example 1, the active ingredient of the pharmaceutical composition of the present invention, on a xenograft tumor sample of breast cancer cells (MBA-MB-231), a human-derived TNBC cell line.\nSpecifically, to confirm the […] inhibitory effect of the compound of Example 1, the active ingredient of the pharmaceutical composition of the present invention, on breast cancer cell viability, an experiment was performed using 80 female 5-week-old xenograft Balb/c nude mice, which were approximately 8 weeks old at the start of administration.\nThe experimental xenograft Balb/c nude mice lacks T cells, the immune cells, were selected as an animal model suitable for transplanting human cancer cells. At the time of administration, animals within ±20% of the total average body weight were selected, and tumor growth was checked twice a week on the surface, and the size of the tumor was measured with a vernier caliper for 3 weeks."}, "M2 TAM": {"test_system": "M2 TAM", "experiment": "Flow cytometric analysis (FACS) of tumor tissue, 4T1 allograft model", "type": "in vivo, BALB/c mice", "protocol": "(§4) The tumor tissues from each mouse were subjected to single cell isolation, followed by flow cytometric analysis (FACS) to confirm the immunomodulatory effect.\n(§5) Specifically, the spleen and tumor of the mouse were extracted 31 days after tumor cell injection in the same manner as in Example 8. After the tumor tissue was excised, it was mechanically processed by fine chopping using a sterilized razor blade, and then treated with DNase (0.1 mg/ml) and collagenase (1 mg/ml), respectively, and reacted at 36° C. for 30 minutes to obtain a single cell suspension. To analyze infiltrating leukocytes after isolation of single cells from the tumor tissue, […] cells per FACS tube were stained with FITC, PE, PerCP/Cy5.5, and APC fluorescence using CD3 antibody, CD8b antibody, CD4 antibody, CD11b antibody, F4/80 antibody, and CD206 antibody. For each stained sample, the fraction of CD8+ cytotoxic T cells was calculated using BD Bioscience FACSCalibur machines. Analysis of the FACS results was performed using FlowJo software, version 10."}, "CD8+ T cells": {"test_system": "CD8+ T cells", "experiment": "Flow cytometric analysis (FACS) of tumor tissue, 4T1 allograft model", "type": "in vivo, BALB/c mice", "settings": "31 days", "protocol": "as §4, §5"}, "M1 TAM": {"test_system": "M1 TAM", "experiment": "Flow cytometric analysis (FACS) of tumor tissue, 4T1 allograft model", "type": "in vivo, BALB/c mice", "protocol": "as §4, §5"}, "MDA-MB-231": {"test_system": "MDA-MB-231", "experiment": "Cell viability assay (WST-8), TNBC cell line", "type": "cell-based, human", "settings": "dose dependently", "protocol": "An experiment was performed to confirm the growth inhibitory effect of the compound of Example 1, the active ingredient of the pharmaceutical composition of the present invention, on breast cancer cell lines through cell viability assay.\nSpecifically, the cell viability assay was performed as follows. BT20, a human-derived breast cancer cell line, and MDA-MB-231, a TNBC cell line, were each seeded in 96-well plates at the density of 5×10^3 cells/well and cultured for 24 hours. Then, I-bet 762 and the compound of Example 1 were treated thereto at different concentrations and cultured for 48 hours. At the end of the culture, 100 μl of WST-8 solution was added to each well of the plate, and the absorbance was measured with a microplate reader using a 450 nm optical filter to measure the formazan produced by the reducing factors in living cells.\n(§6) FIGS. 4A-4C show the cell viability of MDA-MB-231, MDA-MB-453, and BT-20 after 24 hours of treatment with the compound of Example 1. As shown in FIGS. 4A-4C, it was confirmed that the cell viability was suppressed not only in general breast cancer cell lines, but also in TNBC cell lines dose dependently."}, "Huh-7": {"test_system": "Huh-7", "experiment": "Cell viability alone and in combination with sorafenib", "type": "cell-based, Human", "protocol": "(§7) Human liver cancer cell lines (SK Hep1 and Huh-7) were treated with control (no treatment), 0.1 μM of the compound of Example 1, 1 μM of sorafenib, and 0.1 μM of the compound of Example 1/1 μM of sorafenib, and the cell viability of SK Hep1 and Huh-7 was confirmed."}, "SK Hep1": {"test_system": "SK Hep1", "experiment": "Cell viability alone and in combination with sorafenib", "type": "cell-based, Human", "protocol": "as §7"}, "MDA-MB-453": {"test_system": "MDA-MB-453", "experiment": "Cell viability, breast cancer cell line", "type": "cell-based", "settings": "MDA-MB-453, 24 hours, dose dependently", "protocol": "as §6"}, "[2]": {"settings": "0.1 μM Example 1 combined with 1 μM cisplatin"}, "[3]": {"settings": "0.1 μM Example 1 combined with 1 μM sorafenib"}}}
{"smiles": "Oc1c(Cl)cc(-c2c[nH]c3ncnc(N[C@H]4CC[C@H](O)CC4)c23)cc1Cl", "note": "[Example 1, (trans)-2,6-dichloro-4-(4-(4-hydroxycyclohexylamino)-7H-pyrrolo[2,3-d]pyrimidin-5-yl)phenol]", "values": [{"measurement": "expression of c-myc in tumor tissue vs untreated negative control (NC)", "setting": "c-myc", "value": "reduced"}, {"measurement": "expression of BRD4 in tumor tissue vs untreated negative control (NC)", "setting": "BRD4", "value": "reduced"}, {"measurement": "expression of PD-L1 in tumor tissue vs untreated negative control (NC)", "setting": "PD-L1", "value": "reduced"}, {"measurement": "cell viability", "setting": "OVCAR-3; [2]", "value": "further inhibited (synergistic effect)"}, {"measurement": "cell viability", "setting": "OVCAR-3; 0.1 μM alone", "value": "suppressed"}, {"measurement": "cell viability", "setting": "SKOV-3; [2]", "value": "further inhibited (synergistic effect)"}, {"measurement": "cell viability", "setting": "SKOV-3; 0.1 μM alone", "value": "suppressed"}, {"measurement": "tumor growth", "setting": "[1]", "value": "significantly inhibit the tumor growth"}, {"measurement": "M2 TAM", "setting": "M2 TAM; alone", "value": "significantly (P<0.01) decreased"}, {"measurement": "M2 TAM", "setting": "M2 TAM; combined with radiation", "value": "decrease"}, {"measurement": "proportion of CD8+ T cells in tumor", "setting": "CD8+ T cells; alone", "value": "increased"}, {"measurement": "proportion of CD8+ T cells in tumor compared to each administration alone", "setting": "CD8+ T cells; combined with radiation", "value": "significantly increased"}, {"measurement": "M1 TAM", "setting": "M1 TAM; alone", "value": "significantly (P<0.01) increased"}, {"measurement": "M1 TAM", "setting": "M1 TAM; combined with radiation", "value": "increase"}, {"measurement": "cell viability", "setting": "MDA-MB-231; MDA-MB-231, 24 hours", "value": "suppressed"}, {"measurement": "cell viability", "setting": "MDA-MB-231; MDA-MB-231, 48 hours", "value": "inhibited the cell viability"}, {"measurement": "cell viability", "setting": "Huh-7; [3]", "value": "further inhibited (synergistic effect)"}, {"measurement": "cell viability", "setting": "Huh-7; 0.1 μM alone", "value": "suppressed"}, {"measurement": "cell viability", "setting": "SK Hep1; [3]", "value": "further inhibited (synergistic effect)"}, {"measurement": "cell viability", "setting": "SK Hep1; 0.1 μM alone", "value": "suppressed"}, {"measurement": "cell viability", "setting": "MDA-MB-453", "value": "suppressed"}]}
